Results reported in patent publication US20140286892A1, “USE OF A COMPOUND COMPRISING AT LEAST ONE NUCLEOPHILIC FUNCTION FOR CAPTURING CARBONYL COMPOUNDS RESULTING FROM THE REACTION BETWEEN ONE OR MORE COMPOUNDS CONSTITUTING SEBUM AND OZONE” (L'OREAL, priority 2011, published 2014).

Test: Capture of nonanal applied to skin after treatment with the cosmetic composition
Assay type: in vivo
Settings: composition with 10% by weight APTES, pH 9 (lactic acid), 4 mg per cm^2 on skin, left to dry, then nonanal applied
Description: A cosmetic composition containing 10% by weight of APTES sold under the name Dow Corning is prepared. The pH of the composition is brought to 9 by adding lactic acid. The cosmetic composition is then applied to the skin in a proportion of 4 mg per cm^2 over the whole of the body, and then left to dry. Nonanal, which is an aldehyde that can be formed following the action of ozone on sebum, is then applied to the skin. An aqueous cosmetic composition containing 1.4% by weight of active materials of a vinylformamide/vinylformamine copolymer sold under the name Lupamine 9030 by the company BASF is prepared. It is applied to the skin in a proportion of 4 mg per cm^2 over the whole of the body, and then left to dry. Nonanal, which is a compound structurally close to those which are formed following the action of ozone on sebum, is then applied to the skin.

CCO[Si](CCCN)(OCC)OCC [APTES, γ-aminopropyltriethoxysilane]
trapping of nonanal in the skin: trapped
